Values quoted from earlier work as cited in patent publication US20160015644A1, “GASTRO-RETENTIVE SUSTAINED-RELEASE ORAL DOSAGE FORM OF A BILE ACID SEQUESTRANT” (IRONWOOD PHARMACEUTICALS, INC., priority 2013, published 2016).

Legend:
gastric proton pump [1] = biological target: gastric proton pump (Canis lupus familiaris, UniProt P50996); conditions: conscious, pentagastrin-stimulated fistula dog
gastric proton pump [2] = biological target: gastric proton pump (Homo sapiens, UniProt P20648)
gastric proton pump (Homo sapiens, UniProt P20648), sequence (P20648 whole entry): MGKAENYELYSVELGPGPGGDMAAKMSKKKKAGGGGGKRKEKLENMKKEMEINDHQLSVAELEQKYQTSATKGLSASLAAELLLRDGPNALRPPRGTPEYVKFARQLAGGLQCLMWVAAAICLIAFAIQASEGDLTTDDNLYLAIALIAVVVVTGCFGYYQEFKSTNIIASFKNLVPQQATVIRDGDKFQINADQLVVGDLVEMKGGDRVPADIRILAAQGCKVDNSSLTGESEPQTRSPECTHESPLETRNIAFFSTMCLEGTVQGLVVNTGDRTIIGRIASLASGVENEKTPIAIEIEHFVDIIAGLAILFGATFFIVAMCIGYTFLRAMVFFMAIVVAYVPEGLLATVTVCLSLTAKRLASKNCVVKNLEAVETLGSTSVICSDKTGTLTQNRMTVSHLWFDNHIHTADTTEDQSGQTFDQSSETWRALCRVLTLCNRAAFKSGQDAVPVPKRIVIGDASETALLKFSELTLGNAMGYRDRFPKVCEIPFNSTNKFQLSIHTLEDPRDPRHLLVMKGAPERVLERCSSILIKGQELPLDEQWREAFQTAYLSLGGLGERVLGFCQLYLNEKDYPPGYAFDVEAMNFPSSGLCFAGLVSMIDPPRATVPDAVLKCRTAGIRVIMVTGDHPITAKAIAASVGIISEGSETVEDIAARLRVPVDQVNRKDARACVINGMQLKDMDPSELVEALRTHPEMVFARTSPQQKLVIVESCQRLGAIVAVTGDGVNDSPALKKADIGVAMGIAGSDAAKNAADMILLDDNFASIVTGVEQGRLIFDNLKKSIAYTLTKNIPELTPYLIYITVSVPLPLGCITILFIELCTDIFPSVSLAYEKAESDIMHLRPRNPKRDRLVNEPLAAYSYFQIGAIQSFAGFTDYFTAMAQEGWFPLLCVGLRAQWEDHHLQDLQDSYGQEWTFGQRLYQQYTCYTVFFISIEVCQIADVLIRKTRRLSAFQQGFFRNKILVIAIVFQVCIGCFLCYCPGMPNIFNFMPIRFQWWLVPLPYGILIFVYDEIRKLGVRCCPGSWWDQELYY
gastric proton pump (Homo sapiens, UniProt P20648), sequence (P51164 whole entry partner): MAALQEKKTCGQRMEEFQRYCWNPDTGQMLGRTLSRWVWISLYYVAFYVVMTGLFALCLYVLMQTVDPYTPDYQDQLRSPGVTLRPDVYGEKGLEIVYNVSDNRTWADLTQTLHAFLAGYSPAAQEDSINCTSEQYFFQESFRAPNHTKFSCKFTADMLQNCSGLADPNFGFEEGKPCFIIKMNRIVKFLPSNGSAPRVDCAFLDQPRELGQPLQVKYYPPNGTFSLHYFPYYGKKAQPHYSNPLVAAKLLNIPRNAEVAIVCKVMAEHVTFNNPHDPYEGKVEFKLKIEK

gastric proton pump (Canis lupus familiaris, UniProt P50996), sequence (P50996 whole entry): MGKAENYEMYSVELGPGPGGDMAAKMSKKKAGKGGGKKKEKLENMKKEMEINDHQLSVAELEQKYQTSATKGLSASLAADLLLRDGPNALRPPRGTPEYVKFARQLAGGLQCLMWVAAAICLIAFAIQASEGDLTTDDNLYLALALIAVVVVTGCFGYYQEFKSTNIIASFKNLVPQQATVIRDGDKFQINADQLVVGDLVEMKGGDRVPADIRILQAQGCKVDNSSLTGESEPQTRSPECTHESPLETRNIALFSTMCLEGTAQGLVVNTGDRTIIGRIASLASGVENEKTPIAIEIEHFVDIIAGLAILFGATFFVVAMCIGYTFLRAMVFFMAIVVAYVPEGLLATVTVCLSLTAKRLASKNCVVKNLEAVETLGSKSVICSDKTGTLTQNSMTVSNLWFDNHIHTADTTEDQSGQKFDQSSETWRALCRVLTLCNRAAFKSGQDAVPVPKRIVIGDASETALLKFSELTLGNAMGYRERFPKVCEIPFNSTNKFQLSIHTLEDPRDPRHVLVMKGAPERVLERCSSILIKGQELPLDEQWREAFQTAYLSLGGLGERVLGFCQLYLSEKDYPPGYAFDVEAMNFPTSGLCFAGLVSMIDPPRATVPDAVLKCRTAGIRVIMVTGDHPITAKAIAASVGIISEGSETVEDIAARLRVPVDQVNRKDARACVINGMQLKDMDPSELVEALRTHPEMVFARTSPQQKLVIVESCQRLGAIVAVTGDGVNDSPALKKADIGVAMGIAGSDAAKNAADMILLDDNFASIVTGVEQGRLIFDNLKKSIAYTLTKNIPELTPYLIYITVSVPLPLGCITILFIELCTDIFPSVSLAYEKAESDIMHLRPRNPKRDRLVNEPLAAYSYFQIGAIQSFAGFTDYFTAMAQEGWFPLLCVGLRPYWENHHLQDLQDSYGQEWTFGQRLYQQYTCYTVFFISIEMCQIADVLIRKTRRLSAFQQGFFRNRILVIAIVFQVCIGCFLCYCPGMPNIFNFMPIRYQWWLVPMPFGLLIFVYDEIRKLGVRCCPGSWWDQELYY
gastric proton pump (Canis lupus familiaris, UniProt P50996), sequence (P33704 whole entry partner): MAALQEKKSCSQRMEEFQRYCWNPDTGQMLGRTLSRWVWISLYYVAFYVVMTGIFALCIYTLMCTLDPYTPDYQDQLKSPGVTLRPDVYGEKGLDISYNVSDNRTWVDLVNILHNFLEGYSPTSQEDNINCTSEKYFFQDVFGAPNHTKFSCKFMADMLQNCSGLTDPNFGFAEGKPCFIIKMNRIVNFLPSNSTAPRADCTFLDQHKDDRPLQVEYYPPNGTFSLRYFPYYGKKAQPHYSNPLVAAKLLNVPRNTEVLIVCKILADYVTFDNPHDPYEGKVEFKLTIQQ

COC(=O)Nc1cccc(C)c1CNc1cccn2c(C)c(C)nc12 [BY841, (8-(2-methoxcarbonylamino-6-methyl-phenylmethylamino)-2,3-dimethyl-imida [1,2-a]-pyridine)]
intragastric pH (gastric proton pump [1]): ≤ 6 | comparison with ranitidine and omeprazole (gastric proton pump [1]; elevation of intragastric pH): superior to both ranitidine and omeprazole | effectiveness in comparison with the standard dose of omeprazole (gastric proton pump [2]; 50 mg or 100 mg twice daily, Day one of treatment): markedly more effective | potency in comparison with the standard dose of omeprazole (gastric proton pump [2]; 50 mg or 100 mg twice daily, following repeated daily administration): at least as potent as omeprazole | intragastric pH (gastric proton pump [2]; single 50 mg oral dose): about 6
